The values that follow come from patent US8314140B2, “4-hydroxythiobenzamide derivatives of drugs” (Antibe Therapeutics Inc., priority 2006, dated 2012).

Entries after “also recorded” stand apart in the source; their conditions may differ.

The subject of one data set is human platelet cAMP. The data set is described as follows: Human platelet cAMP concentrations. The class given is cell-based. Particulars: 3-100 μM, 10 minutes, IBMX 0.5 mM; versus vehicle; FIG. 21. Here is the method: Platelet-rich plasma (PRP) was prepared as above. Aliquots of 400 μL of PRP were placed in glass tubes which contained IBMX (isobutyl-1-methylxanthine; 0.5 mM), an non-selective phosphodiesterase inhibitor. […] As a positive control, some aliquots of platelets were treated with forskolin (10 μM), a known stimulus of adenylate cyclase. Ten minutes later, the samples of PRP were centrifuged at 9,000 g for 2 min and the supernatant was discarded. The pellet was resuspended in buffer, sonicated for 2 min, then cAMP concentrations were determined using a specific enzyme-linked immunosorbent assay (Cayman Chemical Co., Ann Arbor, Mich., USA). Experiments were repeated 4-6 times for each concentration of each drug.

Data set [1] has as its system gastric damage. The data set is described as follows: Incidence of gastric damage at end of the leukocyte adherence experiment. The source says:
(§1) Briefly, post-capillary mesenteric venules in anestheitized rats are examined under a light microscope.

Data set [2] has as its system gastric damage. The data set is described as follows: Gastric damage score 3 h after oral dosing. The data set is classed as in vivo, rat. Particulars: oral, 3 h; diclofenac 20 mg/kg or equimolar doses (Compound XVII 27.3 mg/kg, TBZ 7.3 mg/kg); FIG. 8. The text has this:
There were 5 rats in each group.
(§2) Each group consisted of 5 rats.

Data set [3] deals with leukocyte adherence to the vascular endothelium. The experiment in a line: Leukocyte adherence after NSAID or derivative, intravital microscopy (Example 21). The data set is classed as in vivo, rat. Particulars: comment on Table 2.
Source text: as §1

Another data set deals with gastric ulcers. The data set is described as follows: Healing of acetic acid-induced gastric ulcers. The class given is in vivo, rat. As to conditions: oral twice-daily for 4 days; 30 μmol/kg (naproxen, Compound XX 60 μmol/kg); FIG. 17. The protocol: Gastric ulcers were induced via serosal application of acetic acid, as described by Elliott et al., A nitric oxide-releasing nonsteroidal anti-inflammatory drug accelerates gastric ulcer healing in rats. […] After 4 days of such treatment, the rats were euthanized and the stomach was excised and photographed. The area (in mm^2) of the ulcer was determined planimetrically by an individual unaware of the treatments given to the rats.

Data set [4] in a line: H2S generation in buffer and liver homogenate (Example 24). The class given is in vitro ADME. Particulars: 1 mM, FIG. 19. Here is the method: Two ml of an assay reaction mixture was introduced in to ice-cold 250 μl of NaOH 0.1 N in a sealed 3-neck reactor. […] Incubations were lead with or without presence of 10% (w/v) liver homogenate and 2 mM pyridoxal 5′-phosphate. A constant stream of nitrogen was passed through the mixture via a gas-inlet capillary. […] Khan et al., 1980). Reactions were initiated by transferring the tube from ice bath to a 37° C. water bath. The stream of nitrogen carried the sulfide acid in the second reactor containing 2 ml of SAOB as described previously. After incubating at 37° C. for 90 minutes, 1 ml of 50% trichloroacetic acid solution was added to mixture to stop the reaction. […] The concentration of sulfide in SAOB solution was measured with a sulfide sensitive electrode as previously described (Ubuka, 2002; Khan et al., 1980).

Data set [5] concerns carrageenan-induced paw edema. The data set is described as follows: Carrageenan hindpaw edema model. The data set is classed as in vivo, rat. As to conditions: oral 30 min prior to carrageenan; diclofenac 1, 3 or 10 mg/kg; Compound XVII equimolar to diclofenac 3 mg/kg; FIG. 14. Here is the method: Male, Wistar rats weighing 175-200 g were given the test compounds orally 30 min prior to subplantar injection of 100 ul of 1% lambda carrageenan.

The conditions of data set [6]: patients after usual doses; Dig. Dis. Sci. 1989; 34: 573-578; cited from earlier work.
In a further data set the test system is visceral pain perception. The data set is described as follows: Rat model of visceral pain perception (colorectal distension, AWR score). The class given is in vivo. Particulars: 0.8 mL colorectal distention; glibenclamide 10 mg/kg i.p. 30 min before; FIG. 3. The protocol: A rat model of visceral pain perception, a pre-clinical model of irritable bowel syndrome, was used in the following example. Rats (male, Wistar, 200-250 g, obtained from Charles River, Monza, Italy), were housed in plastic cages and maintained under controlled conditions with 12-hours light/dark cycle with lights on at 7.00 AM. Tap water and standard laboratory chow were freely available. Before experiments, rats were individually trained by spending 2-3 hours per day in a plexiglass cage for 2-3 days. It allowed them to adjust to a movement-restriction environment. Food was withheld for 12 hours before colorectal distension (CRD) recording were performed. Experiments were performed in awake rats and were conducted in a blind manner in that the observer was not aware of the identity of drug administered to each animal.
In the testing day, rats were sedated with ether inhalation and a 2 cm long latex balloon was inserted intrarectally 2 cm from the anal verge and fixed at the base of the tail. The balloon was connected via a double-barreled cannula to a pressure transducer to continuously monitoring the rectal pressure by a computer (PowerLab PC, A.D. Instruments, Milford, Mass., USA) and to a syringe for inflation/deflation of the balloon. The rats were then housed in a small cage (20×8×8 cm) on an elevated Plexiglas™ platform and allowed to wake up and adapt for 1 hour. After recovery from sedation, animals underwent the CRD procedure and behavioral responses were tested. The night before the experiments, the balloons were inflated and left overnight so the latex stretched and the balloons became compliant.
CRD of 20 seconds, performed every 5 minutes, was applied in increment of 0.4 ml starting from 0.4 ml up to 1.6 ml water. To achieve an accurate measurement of the colonic parameters and perception, the distensions were repeated twice for each intensity and data for each animal were averaged for analysis. Each animal underwent a double set of CRD. Twenty minutes after the first sequence of CRD (0.4 mL-1.6 ml water), drugs were administered intraperitoneally (i.p.) and a second set of CRD was performed. Behavioral responses during the first and the second set of CRD were assessed and compared.
Behavioral response to CRD was assessed by measuring the abdominal withdrawal reflex (AWR) using a semiquantitative score (1).
A rat model of visceral pain perception as described above was used to compare pain perception scores for 5-amino-2-(4-thiocarbamoyl-phenoxycarbonyloxy)-benzoic acid (Compound XXVII) with or without glibenclamide, an inhibitor of ATP-sensitive K^+ (KATP) channels.
Experiments were carried out as described in Example 13, except that groups of 5 rats each were treated with vehicle, trimebutine maleate (10 mg/kg), or with equimolar doses of trimebutine thiocarbamoylbenzoate (Compound III) or thiocarbamolybenzoate alone.

The target in another data set is T1, COX-2 (Rattus norvegicus, UniProt P35355).
T1 construct: from tissue; host or cells: rat subcutaneous airpouch exudate, in vivo, zymosan-induced
T1 sequence (P35355 18-604): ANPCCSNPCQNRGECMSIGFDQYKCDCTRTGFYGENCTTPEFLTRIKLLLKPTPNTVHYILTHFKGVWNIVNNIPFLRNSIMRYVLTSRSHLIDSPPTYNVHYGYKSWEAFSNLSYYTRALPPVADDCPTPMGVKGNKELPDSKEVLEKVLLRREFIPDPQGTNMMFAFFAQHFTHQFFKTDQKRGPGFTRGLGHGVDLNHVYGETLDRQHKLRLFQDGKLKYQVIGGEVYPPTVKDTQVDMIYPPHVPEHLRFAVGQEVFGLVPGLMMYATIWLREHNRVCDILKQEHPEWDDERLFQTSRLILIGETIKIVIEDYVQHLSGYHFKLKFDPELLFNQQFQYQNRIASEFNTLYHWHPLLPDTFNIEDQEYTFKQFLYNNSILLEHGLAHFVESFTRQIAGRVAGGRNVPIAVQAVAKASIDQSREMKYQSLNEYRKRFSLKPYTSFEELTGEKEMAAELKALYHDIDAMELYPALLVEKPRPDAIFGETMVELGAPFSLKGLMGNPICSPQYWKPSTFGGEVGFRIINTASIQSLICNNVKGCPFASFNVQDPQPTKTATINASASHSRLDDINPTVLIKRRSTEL
The experiment in a line: Rat airpouch assay, exudate PGE2 after zymosan. The class given is in vivo. Particulars: 60 μmol/kg; versus vehicle; FIG. 15. The protocol: Briefly, a subcutaneous “pouch” is created by repeated injections of air over several days. Once established, inflammation in the pouch can be induced by injection of 1 mL of 1% zymosan. […] Another group of 5 rats was treated with the vehicle, but received an injection of 0.9% sterile saline into the pouch rather than zymosan.
as §2

The conditions of data set [7]: hypertensive rats, 60 μmol/kg intraperitoneal bolus, 60 minutes; FIG. 18.

Consider `CCC(C)(C)C(=O)O[C@H]1C[C@@H](C)C=C2C=C[C@H](C)[C@H](CC[C@H]3C[C@H](OC(=O)CCC(=O)Oc4ccc(C(N)=S)cc4)CC(=O)O3)[C@H]21` [Compound I, Succinic acid 2-{2-[8-(2,2-dimethyl-butyryloxy)-2,6-dimethyl-1,2,6,7,8,8a-hexahydro-naphthalen-1-yl]-ethyl}-6-oxo-tetrahydro-pyran-4-yl ester 4-thiocarbamoyl-phenyl ester], for which the “platelet cAMP” value in the data set on human platelet cAMP is “significant increase in platelet cAMP at concentrations of 10, 30 and 100 μM”.
The term melting point denotes the temperature of the solid-liquid transition. `NC(=S)c1ccc(OC(=O)Cc2ccccc2Nc2c(Cl)cccc2Cl)cc1` [Compound XVII, [2-(2,6-dichloro-phenylamino)-phenyl]-acetic acid 4-thiocarbamoyl-phenyl ester] registered a melting point of 170 to 172 °C. Further, the “percent incidence of gastric damage compared to the parent drug alone” value in the data set on gastric damage [1] (comment on Table 2) is “significantly reduced the percent incidence of gastric damage”. The “Percent Incidence of Gastric Damage” value in the data set on gastric damage [1] (intragastric 30 μmol/kg (naproxen and Compound XX 60 μmol/kg), end of experiment) was found to be 20%. Also, the gastric damage score entry in the data set on gastric damage [2] is listed as “no gastric damage; also recorded: significantly less gastric damage than diclofenac”. Also, the “number of adherent leukocytes compared to the parent drug alone” value in [3] is listed as “significantly reduced the number of adherent leukocytes”. In addition, the “gastric ulcer healing (ulcer surface area)” value in the data set with gastric ulcers is recorded as “significantly greater healing”. The “H2S generated in liver homogenate” value in data set [4] (10% (w/v) liver homogenate) was “greater release of H2S from Compound XVII than from TBZ”. For the same compound, the “H2S generated in buffer” value in data set [4] (potassium phosphate buffer pH 7.4) is reported as “significantly more release of H2S than an equivalent amount of TBZ”. In addition, the “paw edema (paw volume increase)” value in data set [5] is given as “reduced paw edema to a greater extent; also recorded: comparable to the effect of diclofenac at a dose of 10 mg/kg”.
Turning to `Nc1ccc(O)c(C(=O)O)c1` [mesalamine, reference compound], the “concentration in the colonic lumen” value in data set [6] is listed as “up to 5 mM”. Besides, in the data set on visceral pain perception, the “pain perception score after glibenclamide pretreatment” value was “did not affect the pain perception”.
As to `COc1ccc2cc([C@H](C)C(=O)O)ccc2c1` [naproxen], the “exudate PGE2 in the pouch (COX-2 activity)” value on COX-2 was “significantly suppressed COX-2 activity”. In addition, the “increase in systolic blood pressure” value in data set [7] is listed as “substantial increase in systolic blood pressure”.
